Experimental data as given in US20240002393A1, “SUBSTITUTED BENZO[f][l ,2,4JTRIAZOL0[4,3-a][l ,4J[…] GABA A GAMMA! POSITIVE ALLOSTERIC MODULATORS” (Hoffmann-La Roche Inc., priority 2020, published 2024).

Target: h-GABA-A α2β2γ1 (Homo sapiens (Human), UniProt P47869+Q8N1C3)
Test: Two-electrode voltage clamp electrophysiology in Xenopus oocytes expressing GABAA receptors
Assay type: cell-based
Details: for Efficacy (GABA)%: % modulation of GABA EC20 = 100*(Fold increase−1), compound at 30-fold Ki; for Fold increase h-GABA-A α2β2γ1 oocyte @ 30-fold Ki: GABA EC20, test compound at about 30-fold its Ki α2β2γ1, at least 3 oocytes
Protocol: Xenopus laevis oocytes at maturation stages V-VI were used for the expression of cloned mRNA encoding GABAA receptor subunits. Oocytes ready for RNA micro-injection were bought from Ecocyte, Castrop-Rauxel, Germany and stored in modified Barth's medium (composition in mM: NaCl 88, KCl 1, NaHCO3 2.4, HEPES 10, MgSO4 0.82, CaNO3 0.33, CaCl2 0.33, pH=7.5) at 20° C. until the experiment.
Oocytes were plated in 96-well plates for microinjection using the Roboinject automated instrument (MultiChannelSystems, Reutlingen, Germany). Approximately 50 nL of an aqueous solution containing the RNA transcripts for the subunits of the desired GABAA receptor subtype was injected into each oocyte. […] Oocytes were kept in modified Barth's medium (composition in mM: NaCl 88, KCl 1, NaHCO3 […], HEPES 10, MgSO4 0.82, CaNO3 0.33, CaCl2 0.33, pH=7.5) at 20° C. until the experiment.
Electrophysiological experiments were performed using the Roboocyte instrument (MultiChannelSystems, Reutlingen, Germany) on days 3 to 5 after the micro-injection of mRNA. During the experiment the oocytes were constantly superfused by a solution containing (in mM) NaCl 90, KCl 1, HEPES 5, MgCl2 1 CaCl2 1 (pH 7.4). Oocytes were impaled by two glass microelectrodes (resistance: 0.5-0.8 MΩ) which were filled with a solution containing KCl 1M+K-acetate 1.5 M and voltage-clamped to −80 mV. The recordings were performed at room temperature using the Roboocyte two-electrode voltage clamp system (Multichannelsystem). After an initial equilibration period of 1.5 min GABA was added for 1.5 min at a concentration evoking approximately 20% of a maximal current response (EC20). After another rest interval of 2.5 min GABA was again added evoking a response of similar amplitude and shape. […] Current traces were recorded at a digitization rate of 10 Hz during and shortly before and after the GABA application.
Each compound and concentration was tested on at least 3 oocytes. Different oocytes were used for different compound concentrations.
For the analysis, the digitized current traces of the first and second GABA response were superimposed and, if necessary, rescaled to equal maximal amplitudes. The ratio between the two responses during the time interval of test compound application was calculated point by point. The extremum of the resulting “ratio trace” was taken as the efficacy (“Fold increase”) of the compound expressed as “% modulation of GABA EC20” (100*(Fold increase−1)).

Compound	Efficacy (GABA)% [%]	Fold increase h-GABA-A α2β2γ1 oocyte @ 30-fold Ki
C[C@@H]1N=C(c2ccccc2F)c2c(ccc(Br)c2Cl)-n2cnnc21 [Example 30, (4S)-8-bromo-7-chloro-6-(2-fluorophenyl)-4-methyl-4H-[1,2,4]triazolo[4,3-a][1,4]benzodiazepine]	57	1.57
OC1N=C(c2c(F)cccc2F)c2c(ccc(Br)c2Cl)-n2cnnc21 (stereo not drawn) [Example 31, 8-bromo-7-chloro-6-(2,6-difluorophenyl)-4H-[1,2,4]triazolo[4,3-a][1,4]benzodiazepin-4-ol]	74	1.74
C[C@@H]1N=C(c2ccccc2F)c2c(ccc(Br)c2Cl)-n2c(-c3cccnn3)nnc21 [Example 32, (4S)-8-bromo-7-chloro-6-(2-fluorophenyl)-4-methyl-1-pyridazin-3-yl-4H-[1,2,4]triazolo[4,3-a][1,4]benzodiazepine]	105	2.05
OC1N=C(c2ccccc2F)c2c(ccc(Br)c2Cl)-n2c(-c3cccnn3)nnc21 (stereo not drawn) [Example 35, 8-bromo-7-chloro-6-(2-fluorophenyl)-1-pyridazin-3-yl-4H-[1,2,4]triazolo[4,3-a][1,4]benzodiazepin-4-ol]	108	2.08
C[C@@H]1N=C(c2c(F)cccc2F)c2c(ccc(Br)c2Cl)-n2cnnc21 [Example 51, (4S)-8-bromo-7-chloro-6-(2,6-difluorophenyl)-4-methyl-4H-[1,2,4]triazolo[4,3-a][1,4]benzodiazepine]	56	1.56
C[C@@H]1N=C(c2c(F)cccc2F)c2c(ccc(Cl)c2Cl)-n2c(-c3ccncn3)nnc21 [Example 52, (4S)-7,8-dichloro-6-(2,6-difluorophenyl)-4-methyl-1-pyrimidin-4-yl-4H-[1,2,4]triazolo[4,3-a][1,4]benzodiazepine]	100	2.00
C[C@@H]1N=C(c2c(F)cccc2F)c2c(ccc(Cl)c2Cl)-n2c(-c3cnn(C)c3)nnc21 [Example 53, (4S)-7,8-dichloro-6-(2,6-difluorophenyl)-4-methyl-1-(1-methylpyrazol-4-yl)-4H-[1,2,4]triazolo[4,3-a][1,4]benzodiazepine]	32	1.32
C[C@@H]1N=C(c2c(F)cccc2F)c2c(ccc(Cl)c2Cl)-n2c(-c3cccnn3)nnc21 [Example 56, (4S)-7,8-dichloro-6-(2,6-difluorophenyl)-4-methyl-1-pyridazin-3-yl-4H-[1,2,4]triazolo[4,3-a][1,4]benzodiazepine]	78	1.78
C[C@@H]1N=C(c2ncccc2F)c2c(ccc(Cl)c2Cl)-n2c(-c3cccnn3)nnc21 [Example 63, (4S)-7,8-dichloro-6-(3-fluoro-2-pyridyl)-4-methyl-1-pyridazin-3-yl-4H-[1,2,4]triazolo[4,3-a][1,4]benzodiazepine]	891	9.91
C[C@@H]1N=C(c2c(F)cccc2F)c2c(ccc(Cl)c2Cl)-n2c1n[nH]c2=O [Example 64, (4S)-7,8-dichloro-6-(2,6-difluorophenyl)-4-methyl-2,4-dihydro-[1,2,4]triazolo[4,3-a][1,4]benzodiazepin-1-one]	74	1.74
C[C@@H]1N=C(c2ncccc2F)c2c(ccc(Cl)c2Cl)-n2c(-c3ccncn3)nnc21 [Example 66, (4S)-7,8-dichloro-6-(3-fluoro-2-pyridyl)-4-methyl-1-pyrimidin-4-yl-4H-[1,2,4]triazolo[4,3-a][1,4]benzodiazepine]	143	2.43
C[C@@H]1N=C(c2ncccc2F)c2c(ccc(Cl)c2Cl)-n2c(-c3cnn(C)c3)nnc21 [Example 67, (4S)-7,8-dichloro-6-(3-fluoro-2-pyridyl)-4-methyl-1-(1-methylpyrazol-4-yl)-4H-[1,2,4]triazolo[4,3-a][1,4]benzodiazepine]	69	1.69
C[C@@H]1N=C(c2ncccc2F)c2c(ccc(Cl)c2Cl)-n2c(C3CC3)nnc21 [Example 68, (4S)-7,8-dichloro-1-cyclopropyl-6-(3-fluoro-2-pyridyl)-4-methyl-4H-[1,2,4]triazolo[4,3-a][1,4]benzodiazepine]	109	2.09
C[C@@H]1N=C(c2c(F)cccc2F)c2c(ccc(Cl)c2Br)-n2c(-c3cccnn3)nnc21 [Example 73, (4S)-7-bromo-8-chloro-6-(2,6-difluorophenyl)-4-methyl-1-(pyridazin-3-yl)-4H-benzo[f][1,2,4]triazolo[4,3-a][1,4]diazepine]	105	2.05
C[C@@H]1N=C(c2c(F)cccc2F)c2c(ccc(Cl)c2Br)-n2c(-c3ccncn3)nnc21 [Example 74, (4S)-7-bromo-8-chloro-6-(2,6-difluorophenyl)-4-methyl-1-pyrimidin-4-yl-4H-[1,2,4]triazolo[4,3-a][1,4]benzodiazepine]	62	1.62
Cc1nnc2n1-c1ccc(Br)c(Cl)c1C(c1c(F)cccc1F)=N[C@H]2C [Example 75, (4S)-8-bromo-7-chloro-6-(2,6-difluorophenyl)-1,4-dimethyl-4H-[1,2,4]triazolo[4,3-a][1,4]benzodiazepine]	57	1.57
C[C@@H]1N=C(c2c(F)cccc2F)c2c(ccc(Cl)c2Br)-n2c(-c3cnn(C)c3)nnc21 [Example 76, (4S)-7-bromo-8-chloro-6-(2,6-difluorophenyl)-4-methyl-1-(1-methylpyrazol-4-yl)-4H-[1,2,4]triazolo[4,3-a][1,4]benzodiazepine]	52	1.52
Cc1nnc2n1-c1ccc(Cl)c(Br)c1C(c1c(F)cccc1F)=N[C@H]2C [Example 80, (4S)-7-bromo-8-chloro-6-(2,6-difluorophenyl)-1,4-dimethyl-4H-[1,2,4]triazolo[4,3-a][1,4]benzodiazepine]	59	1.59
C[C@@H]1N=C(c2c(F)cccc2F)c2c(ccc(Cl)c2Br)-n2c(-c3ccn(C)n3)nnc21 [Example 81, (4S)-7-bromo-8-chloro-6-(2,6-difluorophenyl)-4-methyl-1-(1-methylpyrazol-3-yl)-4H-[1,2,4]triazolo[4,3-a][1,4]benzodiazepine]	46	1.46
Cc1nnc2n1-c1ccc(Cl)c(Cl)c1C(c1c(F)cccc1F)=N[C@H]2C [Example 82, (4S)-7,8-dichloro-6-(2,6-difluorophenyl)-1,4-dimethyl-4H-[1,2,4]triazolo[4,3-a][1,4]benzodiazepine]	45	1.45
C[C@@H]1N=C(c2ncccc2F)c2c(ccc(Br)c2Cl)-n2c(C3CC3)nnc21 [Example 83, (4S)-8-bromo-7-chloro-1-cyclopropyl-6-(3-fluoro-2-pyridyl)-4-methyl-4H-[1,2,4]triazolo[4,3-a][1,4]benzodiazepine]	102	2.02
C[C@@H]1N=C(c2ncccc2F)c2c(ccc(Br)c2Cl)-n2cnnc21 [Example 84, (4S)-8-bromo-7-chloro-6-(3-fluoro-2-pyridyl)-4-methyl-4H-[1,2,4]triazolo[4,3-a][1,4]benzodiazepine]	203	3.03
Cc1nnc2n1-c1ccc(Br)c(Cl)c1C(c1ncccc1F)=N[C@H]2C [Example 85, (4S)-8-bromo-7-chloro-6-(3-fluoro-2-pyridyl)-1,4-dimethyl-4H-[1,2,4]triazolo[4,3-a][1,4]benzodiazepine]	114	2.14
Cc1ccc(-c2nnc3n2-c2ccc(Cl)c(Cl)c2C(c2c(F)cccc2F)=N[C@H]3C)nn1 [Example 86, (4S)-7,8-dichloro-6-(2,6-difluorophenyl)-4-methyl-1-(6-methylpyridazin-3-yl)-4H-[1,2,4]triazolo[4,3-a][1,4]benzodiazepine]	80	1.80
